# Measured values reported in the Deep4Chem optical property database.
# Assay: solvent given as SMILES
structure (smiles),measurement,setting,value
F[B-]1(F)n2cccc2C(c2c3ccccc3c(-c3ccccc3)c3ccccc23)=C2C=CC=[N+]21,emission maximum,in CC#N,524 nm
same,emission maximum,in CCCCCC,564 nm
same,emission maximum,in CCO,522 nm
same,emission maximum,in CN(C)C=O,526 nm
same,emission maximum,in Cc1ccccc1,529 nm
same,emission maximum,in ClCCl,526 nm
C#CCOc1ccc(/C=C/C2=[N+]3C(=C(c4ccc(N(CC)CC)cc4)c4c(C)cc(/C=C/c5ccc(S(=O)(=O)O)cc5S(=O)(=O)O)n4[B-]3(F)F)C(C)=C2)cc1,emission maximum,in O,660 nm
Cc1ccc(/C2=c3\cc/c(o3)=C(\c3ccc(C)cc3)c3ccc([nH]3)-c3ccc4n3[P-](=O)(=O)[N+]3=C(C=CC3=C4c3ccco3)c3ccc2[nH]3)cc1,emission maximum,in ClC(Cl)Cl,744 nm
c1ccc2c(c1)OB1Oc3ccccc3-c3c1c-2c1c2c3-c3ccccc3OB2Oc2ccccc2-1,emission maximum,in ClCCl,430 nm
Cc1c2c(c(C)c3ccccc13)C1=C2C=CC2Nc3ccccc3NC12 (stereo not drawn),emission maximum,in ClC(Cl)Cl,544 nm
CCCCCCCCCCCCC(CCCCCCCCCC)Cn1c2cc(/C=C/c3nc4ccccc4s3)c3cccc4c5cccc6c(/C=C/c7nc8ccccc8s7)cc1c(c65)c2c34 (stereo not drawn),emission maximum,in C1CCCCC1,570 nm
same,emission maximum,in CC#N,581 nm
same,emission maximum,in Cc1ccccc1,582 nm
same,emission maximum,in ClCCl,585 nm
CC1=C(C#Cc2ccc(B(c3c(C)cc(C)cc3C)c3c(C)cc(C)cc3C)cc2)C(C)=[N+]2C1=C(c1ccccc1)c1c(C)c(C#Cc3ccc(B(c4c(C)cc(C)cc4C)c4c(C)cc(C)cc4C)cc3)c(C)n1[B-]2(F)F,emission maximum,in ClCCl,602 nm
N#Cc1cc(-c2ccccc2)c(N2c3ccccc3Oc3ccccc32)c(-c2ccccc2)c1,emission maximum,in C1CCCCC1,455 nm
COC(=O)c1ccc(C2=C3C(C)=CC(C)=[N+]3[B-](F)(F)n3c(/C=C/c4c[nH]cn4)cc(C)c32)cc1,emission maximum,in ClC(Cl)Cl,589 nm
CCOC(=O)c1cc(C(=O)OCC)c2cc(NC)ccc2n1,emission maximum,in CCO,539 nm
COc1ccc(C#Cc2cc3ccccc3oc2=O)cc1,emission maximum,in CC#N,456 nm
COc1ccc2c3ccc(OC)cc3n(-c3cc(Cl)c([C](c4c(Cl)cc(Cl)cc4Cl)c4c(Cl)cc(Cl)cc4Cl)c(Cl)c3)c2c1,emission maximum,in C1CCCCC1,638 nm
CCOC(=O)/C(C#N)=C/c1cc2c3ccccc3n(C)c2cc1OC,emission maximum,in C1CCOC1,460 nm
same,emission maximum,in CC#N,486 nm
same,emission maximum,in CCOC(C)=O,458 nm
same,emission maximum,in CN(C)C=O,486 nm
same,emission maximum,in CO,486 nm
same,emission maximum,in CS(C)=O,488 nm
same,emission maximum,in Cc1ccccc1,446 nm
same,emission maximum,in ClC(Cl)Cl,468 nm
same,emission maximum,in ClCCl,472 nm
O=C(O)c1cc(O)c(O)c(O)c1,emission maximum,in O,341 nm
CC[n+]1nc2ccc(N(C)C)cc2c2cc(C)ccc21,emission maximum,in O,542 nm
CC1CC=C(c2ccc(-c3ccc(C=O)s3)s2)CC1 (stereo not drawn),emission maximum,in C1CCOC1,467 nm
same,emission maximum,in CC#N,482 nm
same,emission maximum,in CCCCCC,445 nm
same,emission maximum,in CCO,500 nm
same,emission maximum,in OCCOCCO,508 nm
same,emission maximum,in c1ccncc1,483 nm
CN(C)c1ccc(/C=C/C=C/c2ccc(B(O)O)cc2)cc1,emission maximum,in C1CCCCC1,441 nm
COc1ccccc1-c1nc(-c2ccccc2)c(-c2ccccc2)[nH]1,emission maximum,in CO,375 nm
c1ccc([B-]2(c3ccccc3)Oc3ccc4ccccc4c3-c3c4ccccc4cc[n+]32)cc1,emission maximum,in Cc1ccccc1,522 nm
Clc1nc(Cl)nc(Nc2ccc3c4cccc5cccc(c6cccc2c63)c54)n1,emission maximum,in C1COCCO1,472 nm
same,emission maximum,in CC#N,475 nm
same,emission maximum,in CCCCOCCCC,475 nm
same,emission maximum,in CCOC(C)=O,469 nm
CCCC1(CCC)c2ccccc2-c2ccc(-c3ccc(OC)cc3)cc21,emission maximum,in C1CCCCC1,345 nm
CCNc1ccc(NCC)c2c1C(=O)c1ccccc1C2=O,emission maximum,in C1CCCCC1,670 nm
same,emission maximum,in C1COCCO1,684 nm
same,emission maximum,in CC(C)=O,671 nm
same,emission maximum,in CCCCCCCCCCO,672 nm
same,emission maximum,in CCCCCCCO,666 nm
same,emission maximum,in CCCCCCO,663 nm
same,emission maximum,in CCCCO,670 nm
same,emission maximum,in CCO,672 nm
same,emission maximum,in CN(C)C=O,680 nm
same,emission maximum,in CO,669 nm
same,emission maximum,in CS(C)=O,672 nm
same,emission maximum,in ClC(Cl)(Cl)Cl,679 nm
same,emission maximum,in c1ccccc1,670 nm
F[B-]1(F)n2c(ccc2-c2ccccc2)C(C(F)(F)F)=C2C=CC(c3ccccc3)=[N+]21,emission maximum,in CCCCCC,622 nm
N#C/C(=C\c1ccc([N+](=O)[O-])cc1)c1nc(-c2ccccc2)cs1,emission maximum,in CC#N,552 nm
C(/C=C/c1ccc(-n2c3ccccc3c3ccccc32)cc1)=C\c1ccncc1,emission maximum,in C1COCCO1,436 nm
same,emission maximum,in CC#N,492 nm
same,emission maximum,in CCCCCCC,382 nm
same,emission maximum,in CO,496 nm
CCCCCCn1c2c(c3ccccc31)-c1c(c3ccccc3n1CCCCCC)-c1c(c3ccccc3n1CCCCCC)-c1c-2c2ccccc2n1CCCCCC,emission maximum,in ClCCl,352 nm
Cc1ccc(-c2nc(-c3cccc(O)c3)[nH]c2-c2ccc(C)cc2)cc1,emission maximum,in CO,399 nm
FC(F)(F)C(F)(F)C(F)(F)C1=NC2=C(Sc3ccccc3)C=C3c4cc(Sc5ccccc5)c5nc(C(F)(F)C(F)(F)C(F)(F)F)nc6c(Sc7ccccc7)cc(c4c56)=C4C=C(Sc5ccccc5)C(=N1)C2C34 (stereo not drawn),emission maximum,in C1CCOC1,606 nm
COc1cc2c3cc(OC)c(OC)cc3c3cc4c(C)cc(=O)oc4cc3c2cc1OC,emission maximum,in C1CCOC1,489 nm
same,emission maximum,in CO,556 nm
same,emission maximum,in CS(C)=O,519 nm
same,emission maximum,in Cc1ccccc1,463 nm
same,emission maximum,in ClC(Cl)Cl,491 nm
COc1ccc(-c2c3nc(cc4ccc([nH]4)c(-c4ccc(OC)c(OCCCC(=O)O)c4)c4nc(cc5ccc2[nH]5)CC4)CC3)cc1OCCCC(=O)O,emission maximum,in CS(C)=O,738 nm
CCCCn1c2ccc3ccc4ccccc4c3c2c2c3c(ccc4ccccc43)ccc21,emission maximum,in ClCCl,430 nm
CC(C)(C(=O)c1ccc(N2c3ccccc3C(C)(C)c3ccccc32)cc1)C(=O)c1ccc(N2c3ccccc3C(C)(C)c3ccccc32)cc1,emission maximum,in Cc1ccccc1,506 nm
same,emission maximum,in c1ccc2c(c1)c1ccccc1n2-c1ccc(-c2ccc(-n3c4ccccc4c4ccccc43)cc2)cc1,495.97 nm
O=P1(c2ccccc2)C(c2ccc(C3=Cc4ccccc4P3(=O)c3ccccc3)cc2)=Cc2ccccc21 (stereo not drawn),emission maximum,in C1CCOC1,431 nm
CCc1c(C)[nH]c(C2=[N+]3C(=Cc4c(C)cc(C)n4[B-]3(F)F)c3ccccc32)c1C,emission maximum,in C1CCOC1,635 nm
same,emission maximum,in CC#N,632 nm
same,emission maximum,in CCCCCC,630 nm
same,emission maximum,in CO,631 nm
same,emission maximum,in Cc1ccccc1,642 nm
same,emission maximum,in ClCCl,640 nm
COc1ccc(-c2cc3c(ccc4sc5ccc6sc(-c7ccc(C(C)=O)cc7)cc6c5c43)s2)cc1,emission maximum,in ClCCl,477 nm
c1csc(-c2c3ccc(=[N+]4CCCCC4)cc-3oc3cc(N4CCCCC4)ccc23)c1,emission maximum,in CCO,606 nm
same,emission maximum,in ClCCl,603 nm
Cc1cc(C)c(B(c2cc(-c3ccc(N(C)C)cc3)sc2-c2sc(-c3ccc(N(C)C)cc3)cc2P(=O)(c2ccccc2)c2ccccc2)c2c(C)cc(C)cc2C)c(C)c1,emission maximum,in CO,645 nm
CC1(C)c2ccccc2N(c2ccc(-c3nc(C#N)c(C#N)nc3-c3ccc(N4c5ccccc5C(C)(C)c5ccccc54)cc3)cc2)c2ccccc21,emission maximum,in Cc1ccccc1,620 nm
same,emission maximum,in c1cc(-c2cccc(-n3c4ccccc4c4ccccc43)c2)cc(-n2c3ccccc3c3ccccc32)c1,570 nm
O=P1(c2ccccc2)C(c2ccccc2)=Cc2cc3ccccc3cc21 (stereo not drawn),emission maximum,in ClCCl,428 nm
CC(C)(C)c1ccc2c(c1)c1cc(C(C)(C)C)ccc1n2-c1ccc(C#Cc2ccc(C=O)cc2)cc1,emission maximum,in ClCCl,528 nm
CC1CCC(O)(c2ccc(-c3cccs3)s2)CC1 (stereo not drawn),emission maximum,in C1CCOC1,412 nm
same,emission maximum,in CC#N,405 nm
same,emission maximum,in CCCCCC,408 nm
same,emission maximum,in CCO,406 nm
same,emission maximum,in OCCOCCO,414 nm
same,emission maximum,in c1ccncc1,416 nm
Cc1ccc2ccccc2c1,emission maximum,in C1CCCCC1,338.75 nm
